In patent publication US7078403B1, “Antiviral agents” (Biota Scientific Management Pty Ltd., priority 1999, dated 2006):

The molecules below were run on human embryo lung (MRC-5) cells (assay: Cytotoxicity (CC50 or MTC) in uninfected MRC-5 cells). Details: unit not given.

| SMILES | Activity on Rhinovirus Type 1A MTC |
| --- | --- |
| CON=Cc1cccc(OCCN2CCN(c3ccc(Cl)nn3)CC2)c1 [Compound 75] | >1 |
| CCO/N=C/c1ccc(OCCCCCNc2ccc(Cl)nn2)cc1 [Compound 147] | >1 |
| CCO/N=C/c1ccc(OCCC2CCN(c3cnc4cc(Cl)ccc4n3)CC2)cc1 [Compound 210] | >10 |
| CCON=Cc1ccc(OCCCC2CCN(c3cccnn3)CC2)cc1 [Compound 103] | >1 |
| C=CCON=Cc1ccc(OCCN2CCN(c3ccc(Cl)nn3)CC2)cc1 [Compound 74] | >1 |
| C=CCON=Cc1ccc(OCCN2CCN(c3cccnn3)CC2)cc1 [Compound 66] | >1 |
| CCON=Cc1ccc(OCCC2CCN(c3ccc(CO)nn3)CC2)cc1 [Compound 129] | >1 |
| C=CCON=Cc1ccc(OCCC2CCN(c3ccc(C)nn3)CC2)cc1 [Compound 87] | >1 |
| CCON=Cc1ccc(OCCN2CCN(c3ccc(C)nn3)CC2)cc1 [Compound 68] | >1 |
| Cc1ccc(N2CCC(CCOc3ccc(C=NOCCF)cc3)CC2)nn1 [Compound 143] | >1 |
| C=CCON=Cc1cccc(OCCC2CCN(c3ccc(C)nn3)CC2)c1 [Compound 47] | >1 |
| C=CCON=Cc1cccc(OCCN2CCN(c3ccc(Cl)nn3)CC2)c1 [Compound 77] | >1 |
| CCON=Cc1cc(C)c(OCCCCCCc2cc(C)no2)c(C)c1 [Compound 120] | >1 |
| CCON=Cc1ccc(OCCC2CCN(c3cccnn3)CC2)cc1 [Compound 49] | >1 |
| C=CCON=Cc1ccc(OCC2CCN(c3ccc(Cl)nn3)CC2)cc1 [Compound 30] | >1 |
| CCCON=Cc1cccc(OCCN2CCN(c3ccc(C)nn3)CC2)c1 [Compound 136] | >1 |
| CCON=Cc1cccc(OCCC2CCN(c3ccc(C)nn3)CC2)c1 [Compound 46] | >1 |
| CON=Cc1ccc(OCCC2CCCN(c3ccc(Cl)nn3)C2)cc1 (stereo not drawn) [Compound 140] | >1 |
| CCON=Cc1ccc(OC2CCN(c3ccc(Cl)nn3)CC2)cc1 [Compound 55] | >10 |
| CCCc1cc(CCCCOc2c(C)cc(C=NOCC)cc2C)on1 [Compound 139] | >1 |
| C=CCON=Cc1cccc(OCCN2CCN(c3ccc(C)nn3)CC2)c1 [Compound 72] | >1 |
| CON=Cc1ccc(OCCN2CCN(c3ccc(Cl)nn3)CC2)cc1 [Compound 73] | >1 |
| CCON=Cc1cccc(OCCN2CCN(c3cccnn3)CC2)c1 [Compound 65] | >1 |
| CON=Cc1cccc(OCCC2CCN(c3ccc(C)nn3)CC2)c1 [Compound 48] | >1 |

What follows are molecules tested on HRV type 1A (assay: Inhibition of viral cytopathic effect (CPE), visual scoring or neutral red, HRV type 1A in MRC-5 cells). Details: HRV type 1A in MRC-5 cells, CPE inhibition.
Format: cell-based, human rhinovirus

| SMILES | Activity on Rhinovirus Type 1A EC50 |
| --- | --- |
| CON=Cc1cccc(OCCN2CCN(c3ccc(Cl)nn3)CC2)c1 [Compound 75] | 0.01 µg/mL |
| CCO/N=C/c1ccc(OCCCCCNc2ccc(Cl)nn2)cc1 [Compound 147] | 0.194 µg/mL |
| CCO/N=C/c1ccc(OCCC2CCN(c3cnc4cc(Cl)ccc4n3)CC2)cc1 [Compound 210] | 3.96 µg/mL |
| CCON=Cc1ccc(OCCCC2CCN(c3cccnn3)CC2)cc1 [Compound 103] | 0.266 µg/mL |
| C=CCON=Cc1ccc(OCCN2CCN(c3ccc(Cl)nn3)CC2)cc1 [Compound 74] | 0.02 µg/mL |
| C=CCON=Cc1ccc(OCCN2CCN(c3cccnn3)CC2)cc1 [Compound 66] | 0.05 µg/mL |
| CCON=Cc1ccc(OCCC2CCN(c3ccc(CO)nn3)CC2)cc1 [Compound 129] | 0.048 µg/mL |
| C=CCON=Cc1ccc(OCCC2CCN(c3ccc(C)nn3)CC2)cc1 [Compound 87] | 0.01 µg/mL |
| CCON=Cc1ccc(OCCN2CCN(c3ccc(C)nn3)CC2)cc1 [Compound 68] | 0.04 µg/mL |
| Cc1ccc(N2CCC(CCOc3ccc(C=NOCCF)cc3)CC2)nn1 [Compound 143] | 0.020 µg/mL |
| C=CCON=Cc1cccc(OCCC2CCN(c3ccc(C)nn3)CC2)c1 [Compound 47] | 0.066 µg/mL |
| C=CCON=Cc1cccc(OCCN2CCN(c3ccc(Cl)nn3)CC2)c1 [Compound 77] | 0.003 µg/mL |
| CCON=Cc1cc(C)c(OCCCCCCc2cc(C)no2)c(C)c1 [Compound 120] | 0.04 µg/mL |
| CCON=Cc1ccc(OCCC2CCN(c3cccnn3)CC2)cc1 [Compound 49] | 0.056 µg/mL |
| C=CCON=Cc1ccc(OCC2CCN(c3ccc(Cl)nn3)CC2)cc1 [Compound 30] | 0.036 µg/mL |
| CCCON=Cc1cccc(OCCN2CCN(c3ccc(C)nn3)CC2)c1 [Compound 136] | 0.598 µg/mL |
| CCON=Cc1cccc(OCCC2CCN(c3ccc(C)nn3)CC2)c1 [Compound 46] | 0.062 µg/mL |
| CON=Cc1ccc(OCCC2CCCN(c3ccc(Cl)nn3)C2)cc1 (stereo not drawn) [Compound 140] | 0.016 µg/mL |
| CCON=Cc1ccc(OC2CCN(c3ccc(Cl)nn3)CC2)cc1 [Compound 55] | 2.68 µg/mL |
| CCCc1cc(CCCCOc2c(C)cc(C=NOCC)cc2C)on1 [Compound 139] | 0.19 µg/mL |
| C=CCON=Cc1cccc(OCCN2CCN(c3ccc(C)nn3)CC2)c1 [Compound 72] | 0.16 µg/mL |
| CON=Cc1ccc(OCCN2CCN(c3ccc(Cl)nn3)CC2)cc1 [Compound 73] | 0.003 µg/mL |
| CCON=Cc1cccc(OCCN2CCN(c3cccnn3)CC2)c1 [Compound 65] | 0.21 µg/mL |
| CON=Cc1cccc(OCCC2CCN(c3ccc(C)nn3)CC2)c1 [Compound 48] | 0.016 µg/mL |

Same assay, conditions: selectivity index = CC50 or MTC divided by EC50; HRV type 1A, MRC-5 cells

| SMILES | Activity on Rhinovirus Type 1A SI |
| --- | --- |
| CON=Cc1cccc(OCCN2CCN(c3ccc(Cl)nn3)CC2)c1 [Compound 75] | >98 |
| CCO/N=C/c1ccc(OCCCCCNc2ccc(Cl)nn2)cc1 [Compound 147] | >5 |
| CCO/N=C/c1ccc(OCCC2CCN(c3cnc4cc(Cl)ccc4n3)CC2)cc1 [Compound 210] | >2.5 |
| CCON=Cc1ccc(OCCCC2CCN(c3cccnn3)CC2)cc1 [Compound 103] | >3 |
| C=CCON=Cc1ccc(OCCN2CCN(c3ccc(Cl)nn3)CC2)cc1 [Compound 74] | >46 |
| C=CCON=Cc1ccc(OCCN2CCN(c3cccnn3)CC2)cc1 [Compound 66] | >18 |
| CCON=Cc1ccc(OCCC2CCN(c3ccc(CO)nn3)CC2)cc1 [Compound 129] | >20 |
| C=CCON=Cc1ccc(OCCC2CCN(c3ccc(C)nn3)CC2)cc1 [Compound 87] | >51 |
| CCON=Cc1ccc(OCCN2CCN(c3ccc(C)nn3)CC2)cc1 [Compound 68] | >25 |
| Cc1ccc(N2CCC(CCOc3ccc(C=NOCCF)cc3)CC2)nn1 [Compound 143] | >50 |
| C=CCON=Cc1cccc(OCCC2CCN(c3ccc(C)nn3)CC2)c1 [Compound 47] | >15 |
| C=CCON=Cc1cccc(OCCN2CCN(c3ccc(Cl)nn3)CC2)c1 [Compound 77] | >279 |
| CCON=Cc1cc(C)c(OCCCCCCc2cc(C)no2)c(C)c1 [Compound 120] | >20 |
| CCON=Cc1ccc(OCCC2CCN(c3cccnn3)CC2)cc1 [Compound 49] | >17.8 |
| C=CCON=Cc1ccc(OCC2CCN(c3ccc(Cl)nn3)CC2)cc1 [Compound 30] | >28 |
| CCCON=Cc1cccc(OCCN2CCN(c3ccc(C)nn3)CC2)c1 [Compound 136] | >1 |
| CCON=Cc1cccc(OCCC2CCN(c3ccc(C)nn3)CC2)c1 [Compound 46] | >16.0 |
| CON=Cc1ccc(OCCC2CCCN(c3ccc(Cl)nn3)C2)cc1 (stereo not drawn) [Compound 140] | >61 |
| CCON=Cc1ccc(OC2CCN(c3ccc(Cl)nn3)CC2)cc1 [Compound 55] | >3 |
| CCCc1cc(CCCCOc2c(C)cc(C=NOCC)cc2C)on1 [Compound 139] | >5 |
| C=CCON=Cc1cccc(OCCN2CCN(c3ccc(C)nn3)CC2)c1 [Compound 72] | >6 |
| CON=Cc1ccc(OCCN2CCN(c3ccc(Cl)nn3)CC2)cc1 [Compound 73] | >312 |
| CCON=Cc1cccc(OCCN2CCN(c3cccnn3)CC2)c1 [Compound 65] | >4.5 |
| CON=Cc1cccc(OCCC2CCN(c3ccc(C)nn3)CC2)c1 [Compound 48] | >62 |
